Results reported in EP4667483A1, “HUMAN TRANSFERRIN RECEPTOR-BINDING PEPTIDE” (JCR Pharmaceuticals Co., Ltd., priority 2023, dated 2024).
Read-outs that look alike come from different tables or passages of the source. Numbered stars: 1 amine (or outer) side, 2 acyl side, 3 side chain; on linkers, the order of the positions; unused ones are H or OH. Bridge positions count the residues as written; N and C are the ends. Square brackets hold non-standard residues; d marks the D form. Peptide text beside a SMILES is read from it. * marks the point of attachment. CH2CO(D-glucamine) = O=C(C*)NC[C@H](O)[C@@H](O)[C@H](O)[C@H](O)CO; NH(1-deoxy-D-glucityl) = OC[C@@H](O)[C@@H](O)[C@H](O)[C@@H](O)CN*; Trp(1-CH2COOH) = N[C@@H](Cc1cn(CC(=O)O)c2ccccc12)C(=O)O; NMePhe(3-Cl) = CN[C@@H](Cc1cccc(Cl)c1)C(=O)O; NMeW = CN[C@@H](Cc1c[nH]c2ccccc12)C(=O)O; X6 = Cc1cc(C[C@H](N[*:1])C(=O)[*:2])ccn1; NMeY = CN[C@@H](Cc1ccc(O)cc1)C(=O)O; Nva(3-Et) = CCC(CC)[C@H](N)C(=O)O; PEG4 = NCCOCCOCCOCCOCCC(=O)O; Carboxymethyl = O=C(O)C*

Target: human transferrin receptor (hTfR) (Homo sapiens, UniProt P02786)
Sequence (P02786 whole entry): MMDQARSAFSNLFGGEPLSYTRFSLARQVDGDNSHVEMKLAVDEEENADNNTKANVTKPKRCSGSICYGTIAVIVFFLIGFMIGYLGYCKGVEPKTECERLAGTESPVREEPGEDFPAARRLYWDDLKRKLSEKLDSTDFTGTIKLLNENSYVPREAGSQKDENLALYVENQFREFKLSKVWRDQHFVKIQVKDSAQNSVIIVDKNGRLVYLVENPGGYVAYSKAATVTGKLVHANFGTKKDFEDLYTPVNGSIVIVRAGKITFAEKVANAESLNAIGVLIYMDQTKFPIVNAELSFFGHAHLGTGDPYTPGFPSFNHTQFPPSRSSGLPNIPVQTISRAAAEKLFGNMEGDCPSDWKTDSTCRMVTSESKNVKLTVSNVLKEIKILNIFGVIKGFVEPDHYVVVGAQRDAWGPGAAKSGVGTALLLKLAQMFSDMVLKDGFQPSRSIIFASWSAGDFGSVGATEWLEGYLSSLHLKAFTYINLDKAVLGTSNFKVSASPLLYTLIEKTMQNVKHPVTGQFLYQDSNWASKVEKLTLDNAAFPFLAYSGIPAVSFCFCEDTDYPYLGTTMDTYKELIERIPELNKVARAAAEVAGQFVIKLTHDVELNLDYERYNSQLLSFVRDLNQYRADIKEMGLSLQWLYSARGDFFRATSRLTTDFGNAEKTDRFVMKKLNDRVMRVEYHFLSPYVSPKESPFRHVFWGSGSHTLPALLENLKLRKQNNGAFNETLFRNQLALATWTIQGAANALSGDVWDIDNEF
Assay: SPR measurement under pH 6.0 conditions (Biacore T200, NTA chip, immobilized hTfR)
Assay type: binding
Settings: read-out: hTfR SPR pH6.0 KD
Experimental: Molecular interactions between the synthesized peptides and the transferrin receptor (hTfR) were evaluated by surface plasmon resonance (SPR) using the following method. The specific assay procedure is described below.
An NTA sensor chip (Cytiva) was inserted in a Biacore T200 (Cytiva), a priming operation was performed 3 times with a running buffer: HBS-P+ pH 6.0 (Cytiva), and an equilibrium state was created at a flow rate of 30 µL/min. A ligand immobilization operation was carried out at a flow rate of 10 µL/min.
The surface of the NTA sensor chip was washed with 350 mM EDTA solution, nickel ions were loaded into the carbomethyldextran chains of the sensor chip with a 500 µM aqueous nickel chloride solution, and then washing was performed with 3 mM EDTA solution. After mixing 50 µL of each of 60 mM EDC solution (Cytiva) and 650 mM NHS solution (Cytiva), the mixture was reacted for 420 seconds at a flow rate of 10 µL/min. 150 µL of 0.2 µM hTfR solution was prepared by diluting with 10 mM acetic acid solution (pH 5.0), and reacted for 420 seconds at a flow rate of 10 µL/min to immobilize hTfR on the NTA sensor chip. For the human transferrin receptor (hTfR), the recombinant hTfR described in Example 2 of WO2018/124121 was used. After immobilization, capping was performed by reacting with 1.0 M ethanolamine aqueous solution (Cytiva) at a flow rate of 10 µL/min for 420 seconds. Peptide lysate prepared in DMSO to 10 mM was diluted with the running buffer to a final concentration of 10 µM peptide lysate, and then peptide solutions of 250 nM, 125 nM, 62.5 nM, 25 nM, and 12.5 nM were prepared. The kinetics of the peptide against hTfR was obtained by SPR measurement using the above samples.
The kinetic evaluation model was single-cycle kinetics, and curve fitting was performed using Biacore T200 Evaluation Software Version 3.0 (Cytiva). The binding of the peptide to hTfR was evaluated by performing curve fitting on the obtained sensorgram by the least squares method and obtaining the kon value, the koff value, and the KD value.

[1] = SPR, pH 6.0, peptide with the linker named in the table

Which Kd (pH 6.0, single-cycle kinetics) does the source give for CC[C@H](C)[C@@H]1NC(=O)[C@H](Cc2ccc(OC)cc2)NC(=O)[C@H](Cc2ccc(O)cc2)NC(=O)[C@H](CC(N)=O)NC(=O)[C@H](Cc2c[nH]c3ccccc23)N(C)C(=O)[C@H](C(C)C)NC(=O)[C@H](Cc2cccc(Cl)c2)N(C)C(=O)[C@H](C(C)C)NC(=O)[C@H](C)NC(=O)CSC[C@@H](C(=O)NCCOCCOCCOCCOCCC(N)=O)NC(=O)[C@H](Cc2ccc(O)cc2)N(C)C(=O)[C@H](Cc2ccccc2)NC(=O)[C@H](CCCNC(=N)N)NC(=O)[C@H](CCC(=O)NCCCN)NC(=O)[C@H]([C@@H](C)CC)NC1=O [compound 171] here?
The Kd was 0.000678 µM.

With CCC(CC)[C@@H]1NC(=O)[C@H](Cc2ccc(NCC(=O)O)nc2)NC(=O)[C@H](Cc2ccc(O)cc2)NC(=O)[C@H](CC(N)=O)NC(=O)[C@H](Cc2cn(CC(=O)O)c3ccccc23)NC(=O)[C@H](C(C)C)NC(=O)[C@H](Cc2cccc(Cl)c2)N(C)C(=O)[C@H](C(C)C)NC(=O)[C@H](C)NC(=O)CSC[C@@H](C(=O)NCCOCCOCCOCCOCCC(N)=O)NC(=O)[C@H](Cc2ccc(O)cc2)N(C)C(=O)[C@H](Cc2cccc(C(=O)O)c2)NC(=O)[C@H](CCCNC(=N)N)NC(=O)[C@H](CCC(N)=O)NC(=O)[C@H]([C@@H](C)CC)NC1=O [compound 151] as the molecule, how does the Kd (SPR, pH 6.0, Table 2-1-2) read?
The Kd was 0.0482 µM.

How did the Kd (SPR, pH 6.0, Table 2-1-2) turn out when CCC(CC)[C@@H]1NC(=O)[C@H](Cc2ccc(OCC(=O)O)cc2)NC(=O)[C@H](Cc2ccc(NCC(=O)O)nc2)NC(=O)[C@H](CC(N)=O)NC(=O)[C@H](Cc2cn(CC(=O)O)c3ccccc23)NC(=O)[C@H](C(C)C)NC(=O)[C@H](Cc2cccc(Cl)c2)N(C)C(=O)[C@H](C(C)C)NC(=O)[C@H](C)NC(=O)CSC[C@@H](C(=O)NCCOCCOCCOCCOCCC(N)=O)NC(=O)[C@H](Cc2ccc(O)cc2)N(C)C(=O)[C@H](Cc2cccc(C(=O)O)c2)NC(=O)[C@H](CCCNC(=N)N)NC(=O)[C@H](CCC(N)=O)NC(=O)[C@H]([C@@H](C)CC)NC1=O [compound 150] was run?
Its Kd is 0.0589 µM.

Which Kd [1] does the source give for CCC(CC)[C@@H]1NC(=O)[C@H](Cc2ccc(O)cc2)NC(=O)[C@H](Cc2ccc(O)cc2)NC(=O)[C@H](CC(N)=O)NC(=O)[C@H](Cc2c[nH]c3ccccc23)N(C)C(=O)[C@H](C(C)C)NC(=O)[C@H](Cc2cccc(Cl)c2)N(C)C(=O)[C@H](C(C)C)NC(=O)[C@H](C)NC(=O)CSC[C@@H](C(=O)NCCOCCOCCOCCOCCC(N)=O)NC(=O)[C@H](Cc2ccc(O)cc2)N(C)C(=O)[C@H](Cc2ccc(O)cc2)NC(=O)[C@H](CCCNC(=N)N)NC(=O)[C@H](CCCCN)NC(=O)[C@H](CO)NC1=O [compound 132] ({CH2CO}-AV[NMePhe(3-Cl)]V[NMeW]NYY[Nva(3-Et)]SKRY[NMeY]C[PEG4]-NH2; thioether N-15) here?
The Kd was 0.0132 µM.

With CC[C@H](C)[C@@H]1NC(=O)[C@H](Cc2ccc(OCC(=O)NC[C@H](O)[C@@H](O)[C@H](O)[C@H](O)CO)cc2)NC(=O)[C@H](Cc2ccc(O)cc2)NC(=O)[C@H](CC(N)=O)NC(=O)[C@H](Cc2c[nH]c3ccccc23)NC(=O)[C@H](C(C)C)NC(=O)[C@H](Cc2cccc(Cl)c2)N(C)C(=O)[C@H](C(C)C)NC(=O)[C@H](C)NC(=O)CSC[C@@H](C(=O)NCCOCCOCCOCCOCCC(N)=O)NC(=O)[C@H](Cc2ccc(O)cc2)N(C)C(=O)[C@H](Cc2ccccc2)NC(=O)[C@H](CCC(N)=O)NC(=O)[C@H](CCC(=O)NC[C@H](O)[C@@H](O)[C@H](O)[C@H](O)CO)NC(=O)[C@H]([C@@H](C)CC)NC1=O [compound 39] ({CH2CO}-AV[NMePhe(3-Cl)]VWNYY(CH2CO(D-glucamine))IIE(NH(1-deoxy-D-glucityl))QF[NMeY]C[PEG4]-NH2; thioether N-15) as the molecule, how does the Kd (pH 6.0, single-cycle kinetics) read?
Its Kd is 0.0124 µM.

For CC[C@H](C)[C@@H]1NC(=O)[C@H](Cc2ccc(O)cc2)NC(=O)[C@H](Cc2ccc(O)cc2)NC(=O)[C@H](CC(N)=O)NC(=O)[C@H](Cc2c[nH]c3ccccc23)N(C)C(=O)[C@H](C(C)C)NC(=O)[C@H](Cc2cccnc2)N(C)C(=O)[C@H](C(C)C)NC(=O)[C@H](C)NC(=O)CSC[C@@H](C(=O)NCCOCCOCCOCCOCCC(N)=O)NC(=O)[C@H](Cc2ccc(O)cc2)N(C)C(=O)[C@H](Cc2ccc(O)cc2)NC(=O)[C@H](CCCNC(=N)N)NC(=O)[C@H](CCCCN)NC(=O)[C@H]([C@@H](C)CC)NC1=O [compound 135], which Kd [1] is on record?
Its Kd is 0.0153 µM.

How did the Kd (pH 6.0, single-cycle kinetics) turn out when CC[C@H](C)[C@@H]1NC(=O)[C@H](Cc2ccc(OC)cc2)NC(=O)[C@H](CCCNC(=N)N)NC(=O)[C@H](CC(N)=O)NC(=O)[C@H](Cc2c[nH]c3ccccc23)N(C)C(=O)[C@H](C(C)C)NC(=O)[C@H](Cc2cccc(Cl)c2)N(C)C(=O)[C@H](C(C)C)NC(=O)[C@H](C)NC(=O)CSC[C@@H](C(=O)NCCOCCOCCOCCOCCC(N)=O)NC(=O)[C@H](Cc2ccc(O)cc2)N(C)C(=O)[C@H](Cc2ccccc2)NC(=O)[C@H](CCCNC(=N)N)NC(=O)[C@H](CCCCN)NC(=O)[C@H]([C@@H](C)CC)NC1=O [compound 173] ({CH2CO}-AV[NMePhe(3-Cl)]V[NMeW]NRY(Me)IIKRF[NMeY]C[PEG4]-NH2; thioether N-15) was run?
The Kd was 0.0133 µM.

CC[C@H](C)[C@@H]1NC(=O)[C@H](Cc2ccc(O)cc2)NC(=O)[C@H](Cc2ccc(N)nc2)NC(=O)[C@H](CC(N)=O)NC(=O)[C@H](Cc2c[nH]c3ccccc23)NC(=O)[C@H](C(C)C)NC(=O)[C@H](Cc2ccccc2)N(C)C(=O)[C@H](C(C)C)NC(=O)[C@H](C)NC(=O)CSC[C@@H](C(=O)NCCOCCOCCOCCOCCC(N)=O)NC(=O)[C@H](Cc2ccc(O)cc2)N(C)C(=O)[C@H](Cc2ccc(O)cc2)NC(=O)[C@H](CCCNC(=N)N)NC(=O)[C@H](CCCCN)NC(=O)[C@H]([C@@H](C)CC)NC1=O [compound 123] was tested. Which Kd [1] did it give?
The Kd was 0.0174 µM.

How did the Kd (SPR, pH 6.0, Table 1-3-2-2) turn out when CC[C@H](C)[C@@H]1NC(=O)[C@H](Cc2ccc(O)cc2)NC(=O)[C@H](Cc2ccc(N)nc2)NC(=O)[C@H](CC(N)=O)NC(=O)[C@H](Cc2c[nH]c3ccccc23)N(C)C(=O)[C@H](C(C)C)NC(=O)[C@H](Cc2ccccc2)N(C)C(=O)[C@H](C(C)C)NC(=O)[C@H](C)NC(=O)CSC[C@@H](C(=O)NCC(=O)N[C@H](CCC(=O)O)C(=O)N[C@H](CCC(=O)O)C(=O)N[C@H](CCC(=O)O)C(=O)N[C@H](CO)C(=O)N[C@H](CO)C(=O)N[C@@H](CCCCN=[N+]=[N-])C(N)=O)NC(=O)[C@H](Cc2ccc(C(=O)O)cc2)N(C)C(=O)[C@H](Cc2ccc(O)cc2)NC(=O)[C@H](CCCNC(=N)N)NC(=O)[C@H](CCCCN)NC(=O)[C@H]([C@@H](C)CC)NC1=O [compound 186] was run?
The Kd was 0.145 µM.

How did the Kd (SPR, pH 6.0, Table 2-1-2) turn out when CCC(CC)[C@@H]1NC(=O)[C@H](Cc2ccc(OCC(=O)O)cc2)NC(=O)[C@H](Cc2ccc(O)cc2)NC(=O)[C@H](CC(N)=O)NC(=O)[C@H](Cc2cn(CC(=O)O)c3ccccc23)NC(=O)[C@H](C(C)C)NC(=O)[C@H](Cc2cccc(Cl)c2)N(C)C(=O)[C@H](C(C)C)NC(=O)[C@H](C)NC(=O)CSC[C@@H](C(=O)NCCOCCOCCOCCOCCC(N)=O)NC(=O)[C@H](Cc2ccc(O)cc2)N(C)C(=O)[C@H](Cc2ccnc(C)c2)NC(=O)[C@H](CCCNC(=N)N)NC(=O)[C@H](CCC(N)=O)NC(=O)[C@H]([C@@H](C)CC)NC1=O [compound 152] ({CH2CO}-AV[NMePhe(3-Cl)]V[Trp(1-CH2COOH)]NYY(Carboxymethyl)[Nva(3-Et)]IQR[X6][NMeY]C[PEG4]-NH2; thioether N-15) was run?
The Kd was 0.116 µM.

With CCC(CC)[C@@H]1NC(=O)[C@H](Cc2ccc(O)cc2)NC(=O)[C@H](Cc2ccc(O)cc2)NC(=O)[C@H](CC(N)=O)NC(=O)[C@H](Cc2c[nH]c3ccccc23)N(C)C(=O)[C@H](C(C)C)NC(=O)[C@H](Cc2ccccc2)N(C)C(=O)[C@H](C(C)C)NC(=O)[C@H](C)NC(=O)CSC[C@@H](C(=O)NCCOCCOCCOCCOCCC(N)=O)NC(=O)[C@H](Cc2ccc(O)cc2)N(C)C(=O)[C@H](Cc2ccc(O)cc2)NC(=O)[C@H](CCCNC(=N)N)NC(=O)[C@H](CCCCN)NC(=O)[C@H]([C@@H](C)CC)NC1=O [compound 117] as the molecule, how does the Kd [1] read?
Its Kd is 0.0138 µM.
